Experimental data as given in patent US9255100B2 (BAYER INTELLECTUAL PROPERTY GMBH, priority 2010, dated 2016).

Each compound was assayed against T1, N-terminally GST-tagged human full length recombinant Mps-1 kinase (Homo sapiens, UniProt P33981) (assay: Mps-1 kinase assay (TR-FRET)). Conditions: Mps1 IC50 [nM], 10 μM ATP, 1 μM peptide substrate, 60 min at 22° C.
T1 construct: N-terminally GST-tagged human full length recombinant Mps-1 kinase; purchased Invitrogen, Karslruhe, Germany PV4071
T1 sequence (P33981 1-857): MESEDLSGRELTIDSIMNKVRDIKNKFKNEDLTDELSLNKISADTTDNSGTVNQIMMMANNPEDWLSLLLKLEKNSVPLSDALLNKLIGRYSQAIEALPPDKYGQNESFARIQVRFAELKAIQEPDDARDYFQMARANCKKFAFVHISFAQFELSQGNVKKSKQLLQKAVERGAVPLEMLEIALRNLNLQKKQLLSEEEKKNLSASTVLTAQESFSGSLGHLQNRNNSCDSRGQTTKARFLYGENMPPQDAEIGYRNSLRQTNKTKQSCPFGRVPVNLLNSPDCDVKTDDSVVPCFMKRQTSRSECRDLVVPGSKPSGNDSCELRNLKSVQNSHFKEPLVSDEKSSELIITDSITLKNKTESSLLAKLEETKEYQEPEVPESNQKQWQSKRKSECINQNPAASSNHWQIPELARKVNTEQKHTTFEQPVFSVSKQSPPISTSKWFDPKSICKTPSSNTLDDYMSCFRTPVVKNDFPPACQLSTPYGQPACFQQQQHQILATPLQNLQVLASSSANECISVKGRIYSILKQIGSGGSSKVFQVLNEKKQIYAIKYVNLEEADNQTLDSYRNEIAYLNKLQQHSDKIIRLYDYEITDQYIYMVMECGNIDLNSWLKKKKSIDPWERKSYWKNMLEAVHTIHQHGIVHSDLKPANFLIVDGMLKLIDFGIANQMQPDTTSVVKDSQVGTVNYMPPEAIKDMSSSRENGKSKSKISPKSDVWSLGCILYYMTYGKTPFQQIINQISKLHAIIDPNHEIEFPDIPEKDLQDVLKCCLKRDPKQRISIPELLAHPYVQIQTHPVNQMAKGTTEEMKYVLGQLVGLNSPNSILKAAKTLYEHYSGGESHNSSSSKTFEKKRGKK
Type: biochemical
Method in brief: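 GST-Mps-1 (full length, N-term tag) ~1 nM final, linear-range adjusted per lot; biotinylated peptide substrate. Detection: Eu-anti-pSer/Thr donor → SA-XLent acceptor TR-FRET, 1 h, 22° C. Inhibition of kinase activity.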

IC50 [nM] | Compound
0.2 | Cc1cc(-c2cnc3c(NCC4CCN(C)CC4)cc(Oc4cccc(F)c4)nn23)ccc1C(=O)NC1CC1 [Example 311, N-cyclopropyl-4-[6-(3-fluorophenoxy)-8-{[(1-methylpiperidin-4-yl)methyl]amino}imidazo[1,2-b]pyridazin-3-yl]-2-methyl-benzamide]
0.2 | Cc1cc(-c2cnc3c(NCCCN(C)C)cc(Oc4cccc(F)c4)nn23)ccc1C(=O)NC1CC1 [Example 312, N-cyclopropyl-4-[8-{[3-(dimethylamino)propyl]amino}-6-(3-fluorophenoxy)imidazo[1,2-b]pyridazin-3-yl]-2-methyl-benzamide]
0.1 | Cc1cc(-c2cnc3c(NCCS(C)(=O)=O)cc(Oc4cccc(F)c4)nn23)ccc1C(=O)NC1CC1 [Example 313, N-cyclopropyl-4-[6-(3-fluorophenoxy)-8-{[2-(methylsulfonyl)ethyl]amino}imidazo[1,2-b]pyridazin-3-yl]-2-methyl-benzamide]
0.2 | Cc1cc(-c2cnc3c(NCC(C)(C)N)cc(Oc4cccc(F)c4)nn23)ccc1C(=O)NC1CC1 [Example 314, 4-{8-[(2-amino-2-methyl-propyl)amino]-6-(3-fluorophenoxy)imidazo[1,2-b]pyridazin-3-yl}-N-cyclopropyl-2-methyl-benzamide]
0.3 | Cc1cc(-c2cnc3c(NCC4CNC4)cc(Oc4ccccc4)nn23)ccc1C(=O)NC1CC1 [Example 315, 4-{8-[(azetidin-3-ylmethyl)amino]-6-phenoxy-imidazo[1,2-b]pyridazin-3-yl}-N-cyclopropyl-2-methylbenzamide]
118 | Cc1cc(-c2cnc3c(NCC(C)(C)O)cc(Sc4nnc[nH]4)nn23)ccc1C(=O)NC1CC1 [Example 316, N-cyclopropyl-4-{8-[(2-hydroxy-2-methylpropyl)amino]-6-(4H-1,2,4-tri-azol-3-ylsulfanyl)imidazo [1,2-b]pyridazin-3-yl}-2-methylbenzamide]
7.4 | Cc1c[nH]c(Sc2cc(NCC(C)(C)O)c3ncc(-c4ccc(C(=O)NC5CC5)c(C)c4)n3n2)n1 [Example 317, N-cyclopropyl-4-{8-[(2-hydroxy-2-methylpropyl)amino]-6-[(4-methyl-1H-imidazol-2-yl)sulfanyl]imidazo[1,2-b]pyridazin-3-yl}-2-methylbenzamide]
64.3 | Cc1cc(-c2cnc3c(NCC(C)(C)O)cc(Sc4ncc[nH]4)nn23)ccc1C(=O)NC1CC1 [Example 318, N-cyclopropyl-4-{8-[(2-hydroxy-2-methylpropyl)amino]-6-(1H-imidazol-2-ylsulfanyl)imidazo[1,2-b]pyridazin-3-yl}-2-methylbenzamide]
121 | Cc1cc(-c2cnc3c(NCC(C)(C)O)cc(Oc4ccnn4C)nn23)ccc1C(=O)NC1CC1 [Example 319, N-cyclopropyl-4-{8-[(2-hydroxy-2-methylpropyl)amino]-6-[(1-methyl-1H-pyrazol-5-yl)oxy]imidazo[1,2-b]pyridazin-3-yl}-2-methylbenzamide]
3.3 | Cc1cc(-c2cnc3c(NCC(C)(C)O)cc(Oc4ccc(N5CCNCC5)cc4)nn23)ccc1C(=O)NC1CC1 [Example 320, N-cyclopropyl-4-{8-[(2-hydroxy-2-methylpropyl)amino]-6-[4-(piperazin-1-yl)phenoxy]imidazo [1,2-b]pyridazin-3-yl}-2-methylbenzamide]
0.6 | Cc1cc(-c2cnc3c(NCC(C)(C)O)cc(Oc4cnn(C)c4)nn23)ccc1C(=O)NC1CC1 [Example 321, N-cyclopropyl-4-{8-[(2-hydroxy-2-methylpropyl)amino]-6-[(1-methyl-1H-pyrazol-4-yl)oxy]imidazo[1,2-b]pyridazin-3-yl}-2-methylbenzamide]
70.6 | Cc1cc(-c2cnc3c(NCC(C)(C)O)cc(Oc4ccc(N5CCN(C(=O)OC(C)(C)C)CC5)cc4)nn23)ccc1C(=O)NC1CC1 [Example 322, tert-butyl 4-[4-({3-[4-(cyclopropyl-carbamoyl)-3-methyl-phenyl]-8-[(2-hydroxy-2-methylpropyl)amino]imidazo[1,2-b]pyridazin-6-yl}oxy)phenyl]piperazine-1-carboxylate]
0.3 | Cc1cc(-c2cnc3c(NCCC(F)(F)F)cc(Nc4cccc(F)c4)nn23)ccc1C(=O)NC1CC1 [Example 324, N-cyclopropyl-4-{6-[(3-fluorophenyl)amino]-8-[(3,3,3-trifluoropropyl)amino]imidazo[1,2-b]pyridazin-3-yl}-2-methyl-benzamide]
0.1 | Cc1cc(-c2cnc3c(NCCC(C)(C)O)cc(Oc4cccc(F)c4)nn23)ccc1C(=O)NC1CC1 [Example 325, N-cyclopropyl-4-{6-(3-fluorophenoxy)-8-[(3-hydroxy-3-methylbutyl)amino]imidazo[1,2-b]pyridazin-3-yl}-2-methyl-benzamide]
1.9 | Cc1cc(-c2cnc3c(NCC(C)(C)O)cc(OCc4ccccc4)nn23)ccc1C(=O)NC1CC1 [Example 326, 4-{6-(benzyloxy)-8-[(2-hydroxy-2-methylpropyl)amino]imidazo[1,2-b]pyridazin-3-yl}-N-cyclo-propyl-2-methylbenzamide]
0.3 | Cc1cc(-c2cnc3c(NCC4CCS(=O)(=O)C4)cc(Oc4cccc(F)c4)nn23)ccc1C(=O)NC1CC1 (stereo not shown) [Example 327, N-cyclopropyl-4-[8-{[(1,1-dioxidotetrahydro-thiophen-3-yl)methyl]amino}-6-(3-fluorophenoxy)imidazo[1,2-b]pyridazin-3-yl]-2-methylbenzamide]
0.3 | Cc1cc(-c2cnc3c(NCC4CCOC4)cc(Oc4cccc(F)c4)nn23)ccc1C(=O)NC1CC1 (stereo not shown) [Example 328, N-cyclopropyl-4-{6-(3-fluorophenoxy)-8-[(tetra-hydrofuran-3-ylmethyl)amino]imidazo[1,2-b]pyridazin-3-yl}-2-methyl-benzamide]
< 0.1 | Cc1cc(-c2cnc3c(NCC4CC(=O)N(C)C4)cc(Oc4cccc(F)c4)nn23)ccc1C(=O)NC1CC1 (stereo not shown) [Example 329, N-cyclopropyl-4-[6-(3-fluorophenoxy)-8-{[(1-methyl-5-oxopyrrolidin-3-yl)methyl]amino}imidazo [1,2-b]pyridazin-3-yl]-2-methylbenzamide]
0.2 | Cc1cc(-c2cnc3c(NCC4CC(F)(F)C4)cc(Oc4cccc(F)c4)nn23)ccc1C(=O)NC1CC1 [Example 330, N-cyclopropyl-4-[8-{[(3,3-difluorocyclobutyl)methyl]amino}-6-(3-fluoro-phenoxy)imidazo[1,2-b]pyridazin-3-yl]-2-methyl-benzamide]
12.6 | COCCNc1cc(NCC(C)(C)O)c2ncc(-c3ccc(C(=O)NC4CC4)c(C)c3)n2n1 [Example 331, N-cyclopropyl-4-{8-[(2-hydroxy-2-methylpropyl)amino]-6-[(2-methoxy-ethyl)amino]imidazo[1,2-b]pyridazin-3-yl}-2-methylbenzamide]
26.8 | Cc1cc(-c2cnc3c(NCC(C)(C)O)cc(Oc4ccncc4)nn23)ccc1C(=O)NC1CC1 [Example 332, N-cyclopropyl-4-{8-[(2-hydroxy-2-methylpropyl)amino]-6-(pyridin-4-yl-oxy)imidazo[1,2-b]pyridazin-3-yl}-2-methylbenzamide]
9.5 | Cc1cc(-c2cnc3c(NCC(C)(C)O)cc(Sc4ccncc4)nn23)ccc1C(=O)NC1CC1 [Example 333, N-cyclopropl-4-{8-[(2-hydroxy-2-methylpropyl)amino]-6-(pyridin-4-yl-sulfanyl)imidazo[1,2-b]pyridazin-3-yl}-2-methyl-benzamide]
30 | Cc1cc(-c2cnc3c(NCC(C)(C)O)cc(Sc4ccccn4)nn23)ccc1C(=O)NC1CC1 [Example 334, N-cyclopropyl-4-{8-[(2-hydroxy-2-methylpropyl)amino]-6-(pyridin-2-yl-sulfanyl)imidazo[1,2-b]pyridazin-3-yl}-2-methyl-benzamide]
3.6 | Cc1cc(-c2cnc3c(NCC(C)(C)O)cc(SC4CCOCC4)nn23)ccc1C(=O)NC1CC1 [Example 335, N-cyclopropyl-4-{8-[(2-hydroxy-2-methylpropyl)amino]-6-(tetrahydro-2H-pyran-4-ylsulfanyl)imidazo[1,2-b]pyridazin-3-yl}-2-methylbenzamide]
1 | Cc1cc(-c2cnc3c(NCC(C)(C)O)cc(SC4CCCC4)nn23)ccc1C(=O)NC1CC1 [Example 336, 4-{6-(cyclopentylsulfanyl)-8-[(2-hydroxy-2-methylpropyl)amino]imidazo[1,2-b]pyridazin-3-yl}-N-cyclopropyl-2-methyl-benzamide]
